Experimental data: patent publication US20240269139A1, “COMPOUNDS FOR TARGETED PROTEIN DEGRADATION OF KINASES” (DANA-FARBER CANCER INSTITUTE, INC., priority 2020, published 2024)
“And” between values parts separate entries of the source, which are not always exact repeats. Identical values can stand only once. Like-named read-outs stand apart in the source and are kept apart here.

Key:
Type in all cases: cell-based
[1] = target: T1, protein kinases (human kinome) (Homo sapiens, UniProt Q53H12); details: direction down
T1 sequence (Q53H12 1-422): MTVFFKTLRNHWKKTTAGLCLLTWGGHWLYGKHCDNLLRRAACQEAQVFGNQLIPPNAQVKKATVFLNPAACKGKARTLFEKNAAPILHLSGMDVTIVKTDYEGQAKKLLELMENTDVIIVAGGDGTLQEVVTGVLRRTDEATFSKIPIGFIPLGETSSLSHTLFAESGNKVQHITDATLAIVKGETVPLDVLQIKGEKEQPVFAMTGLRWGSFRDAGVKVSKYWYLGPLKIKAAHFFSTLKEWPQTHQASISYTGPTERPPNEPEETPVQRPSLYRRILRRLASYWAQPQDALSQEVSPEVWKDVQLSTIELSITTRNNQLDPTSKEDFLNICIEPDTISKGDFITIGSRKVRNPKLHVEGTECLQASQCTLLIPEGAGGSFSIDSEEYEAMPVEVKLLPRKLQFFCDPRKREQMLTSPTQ

[2] = target: protein kinases (human kinome) (Homo sapiens, UniProt Q8NI60)
Sequence of protein kinases (human kinome) (Homo sapiens, UniProt Q8NI60) (Q8NI60 163-647): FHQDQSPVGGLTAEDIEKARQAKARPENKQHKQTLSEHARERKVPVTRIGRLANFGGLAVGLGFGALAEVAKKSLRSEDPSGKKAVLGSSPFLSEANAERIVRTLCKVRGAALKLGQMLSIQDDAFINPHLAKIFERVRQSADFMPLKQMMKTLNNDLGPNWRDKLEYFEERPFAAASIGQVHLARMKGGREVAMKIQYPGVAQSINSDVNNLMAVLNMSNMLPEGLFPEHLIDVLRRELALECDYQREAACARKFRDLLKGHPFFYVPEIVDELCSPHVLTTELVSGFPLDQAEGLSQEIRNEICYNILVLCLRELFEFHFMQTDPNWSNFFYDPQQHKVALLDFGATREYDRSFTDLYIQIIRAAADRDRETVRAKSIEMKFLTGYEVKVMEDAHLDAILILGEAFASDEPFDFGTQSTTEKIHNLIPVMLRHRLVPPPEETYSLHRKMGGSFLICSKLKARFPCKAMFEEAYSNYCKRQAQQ

[3] = target: protein kinases (human kinome) (Homo sapiens, UniProt P42684); details: for logFC: ABL2 (P42684) protein abundance, degrader vs DMSO, down
Sequence of protein kinases (human kinome) (Homo sapiens, UniProt P42684) (P42684 whole entry): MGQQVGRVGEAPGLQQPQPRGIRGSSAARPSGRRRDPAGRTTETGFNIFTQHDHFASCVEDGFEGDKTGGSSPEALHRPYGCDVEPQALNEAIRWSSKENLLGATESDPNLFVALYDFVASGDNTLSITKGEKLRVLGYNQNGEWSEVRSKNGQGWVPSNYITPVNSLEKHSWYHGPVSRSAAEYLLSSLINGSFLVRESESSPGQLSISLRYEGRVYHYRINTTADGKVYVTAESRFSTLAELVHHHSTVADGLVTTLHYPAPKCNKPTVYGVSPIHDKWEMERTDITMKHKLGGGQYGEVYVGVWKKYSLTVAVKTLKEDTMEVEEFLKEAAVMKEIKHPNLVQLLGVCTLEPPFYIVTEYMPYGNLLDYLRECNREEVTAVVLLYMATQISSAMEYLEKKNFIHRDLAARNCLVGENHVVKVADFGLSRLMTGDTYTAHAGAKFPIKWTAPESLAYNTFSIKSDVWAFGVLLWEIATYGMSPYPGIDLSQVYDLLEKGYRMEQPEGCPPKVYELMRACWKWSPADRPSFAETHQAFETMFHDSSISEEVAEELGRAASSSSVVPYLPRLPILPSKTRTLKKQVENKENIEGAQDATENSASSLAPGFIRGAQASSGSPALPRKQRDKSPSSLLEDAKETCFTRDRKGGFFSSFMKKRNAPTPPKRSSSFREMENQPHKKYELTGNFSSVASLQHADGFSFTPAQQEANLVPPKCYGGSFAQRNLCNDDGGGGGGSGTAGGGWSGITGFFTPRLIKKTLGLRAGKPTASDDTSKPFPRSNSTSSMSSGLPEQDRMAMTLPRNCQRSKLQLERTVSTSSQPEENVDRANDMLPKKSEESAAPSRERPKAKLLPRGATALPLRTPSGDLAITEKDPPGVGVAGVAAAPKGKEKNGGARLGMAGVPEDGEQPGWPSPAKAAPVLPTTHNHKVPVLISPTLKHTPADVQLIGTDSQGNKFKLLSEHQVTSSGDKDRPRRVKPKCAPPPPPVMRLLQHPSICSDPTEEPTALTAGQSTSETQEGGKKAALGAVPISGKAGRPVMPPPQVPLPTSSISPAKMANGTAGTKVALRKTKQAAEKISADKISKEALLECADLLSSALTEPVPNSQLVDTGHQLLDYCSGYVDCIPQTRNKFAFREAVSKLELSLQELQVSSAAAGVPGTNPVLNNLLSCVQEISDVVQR

[4] = target: protein kinases (human kinome) (Homo sapiens, UniProt P53667); details: LIMK1 (P53667-1)
Sequence of protein kinases (human kinome) (Homo sapiens, UniProt P53667) (P53667 whole entry): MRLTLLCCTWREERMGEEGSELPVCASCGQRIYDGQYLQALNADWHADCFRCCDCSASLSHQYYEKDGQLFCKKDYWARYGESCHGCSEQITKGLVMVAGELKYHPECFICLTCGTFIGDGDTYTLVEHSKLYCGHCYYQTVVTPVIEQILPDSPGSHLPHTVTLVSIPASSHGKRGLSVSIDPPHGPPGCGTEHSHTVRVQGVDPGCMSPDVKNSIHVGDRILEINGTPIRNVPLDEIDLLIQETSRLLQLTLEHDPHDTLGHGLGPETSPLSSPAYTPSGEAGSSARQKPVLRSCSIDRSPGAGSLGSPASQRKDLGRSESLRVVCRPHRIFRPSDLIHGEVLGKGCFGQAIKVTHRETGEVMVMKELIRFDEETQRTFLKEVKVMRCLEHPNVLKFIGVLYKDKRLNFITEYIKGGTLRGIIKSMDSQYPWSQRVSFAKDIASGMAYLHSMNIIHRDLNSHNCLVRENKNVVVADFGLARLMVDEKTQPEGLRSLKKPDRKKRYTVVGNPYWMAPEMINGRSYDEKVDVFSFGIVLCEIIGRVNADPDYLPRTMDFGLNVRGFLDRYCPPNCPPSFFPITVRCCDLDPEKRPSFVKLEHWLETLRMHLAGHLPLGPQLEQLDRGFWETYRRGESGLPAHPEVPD

[5] = target: protein kinases (human kinome) (Homo sapiens, UniProt Q00537); details: for logFC of CDK17: Accession Q00537; for logFC CDK17 (Q00537): direction of change down
Sequence of protein kinases (human kinome) (Homo sapiens, UniProt Q00537) (Q00537 whole entry): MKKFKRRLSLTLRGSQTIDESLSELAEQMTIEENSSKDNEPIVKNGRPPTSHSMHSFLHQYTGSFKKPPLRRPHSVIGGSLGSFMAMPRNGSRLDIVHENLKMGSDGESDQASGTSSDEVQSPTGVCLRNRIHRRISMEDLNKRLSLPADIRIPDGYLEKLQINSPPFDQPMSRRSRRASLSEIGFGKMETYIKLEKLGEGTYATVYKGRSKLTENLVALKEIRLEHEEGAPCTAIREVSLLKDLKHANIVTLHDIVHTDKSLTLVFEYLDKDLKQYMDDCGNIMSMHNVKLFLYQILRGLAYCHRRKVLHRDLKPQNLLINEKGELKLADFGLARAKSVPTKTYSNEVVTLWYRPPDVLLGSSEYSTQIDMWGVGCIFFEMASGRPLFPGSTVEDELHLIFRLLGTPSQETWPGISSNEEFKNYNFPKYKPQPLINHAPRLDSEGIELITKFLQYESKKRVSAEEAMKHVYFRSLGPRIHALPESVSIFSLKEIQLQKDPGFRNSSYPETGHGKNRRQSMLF

[6] = target: protein kinases (human kinome) (Homo sapiens, UniProt Q00535); details: for logFC of CDK5: Accession Q00535
Sequence of protein kinases (human kinome) (Homo sapiens, UniProt Q00535) (Q00535 whole entry): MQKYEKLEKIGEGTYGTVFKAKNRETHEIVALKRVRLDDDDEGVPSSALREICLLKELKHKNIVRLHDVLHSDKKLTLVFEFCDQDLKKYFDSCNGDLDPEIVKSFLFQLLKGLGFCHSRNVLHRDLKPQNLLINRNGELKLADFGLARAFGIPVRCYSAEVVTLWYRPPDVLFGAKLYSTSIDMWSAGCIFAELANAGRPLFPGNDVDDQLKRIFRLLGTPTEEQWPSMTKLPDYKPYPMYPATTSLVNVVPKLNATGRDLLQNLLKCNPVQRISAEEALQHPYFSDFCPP

For `CN(C)C(=O)c1cc2cnc(Nc3ccc(N4CCN(CCCCNC(=O)COc5cccc6c5C(=O)N(C5CCC(=O)NC5=O)C6=O)CC4)cn3)nc2n1C1CCCC1` (centres unmarked) [BSJ.04.132], the “logFC AGK (Q53H12)” value ([1]; Experiment wp084) was −0.6709, the “logFC COQ8A (Q8N160-1)” value ([2]; experiment wp084) was −0.5939 and the “logFC COQ8A (Q8NI60-1)” value ([2]; experiment wp084) was −0.6939.
For `Nc1ncnc2c1c(-c1ccc(Oc3ccccc3)cc1)nn2[C@H]1CC[C@H](N2CCN(CCOCCNC(=O)CNc3cccc4c3C(=O)N(C3CCC(=O)NC3=O)C4=O)CC2)CC1` (some centres unmarked) [SB1.G.181], the logFC [3] was −2.405, the “logFC ABL2 (P42684)” value ([3]; experiment wp071) was −2.405 and the “logFC AGK (Q53H12)” value ([1]; Experiment wp071) was −0.3991. For the same molecule, the “logFC LIMK1” value ([4]; direction down, experiment wp071) was −0.686 and the “logFC LIMK1” value ([4]; experiment wp071, down) was −0.686.
For `CC(C)(C)c1nc(-c2cccc(NS(=O)(=O)c3c(F)cccc3F)c2F)c(-c2ccnc(NCCOCCNC(=O)CCOCCOCCNc3cccc4c3C(=O)N(C3CCC(=O)NC3=O)C4=O)n2)s1` (centres unmarked) [DD.03.106], the “logFC AGK (Q53H12)” value ([1]; Experiment wp147, 2 uM) was −0.346, the “logFC AGK (Q53H12)” value ([1]; Experiment wp147, 4 uM) was −0.9499 and the “logFC of CDK17” value ([5]; experiment wp047) was −0.72. The “logFC of CDK17” value ([5]; experiment wp147, 1 uM) was −0.7615, the “logFC of CDK17” value ([5]; experiment wp147, 4 uM) was −0.6232 and the “logFC CDK17 (Q00537)” value ([5]; experiment wp047) was −0.72. For the same molecule, the “logFC CDK17 (Q00537)” value ([5]; experiment wp147, 1 uM) was −0.7615, the “logFC CDK17 (Q00537)” value ([5]; experiment wp147, 2 uM) was −0.8288 and the “logFC CDK17 (Q00537)” value ([5]; experiment wp147, 4 uM) was −0.6232. For the same molecule, the “logFC LIMK1” value ([4]; direction down, experiment wp047) was −1.637, the “logFC LIMK1” value ([4]; direction down, experiment wp137) was −1.981 and the “logFC LIMK1” value ([4]; direction down, experiment wp147, 1 uM) was −2.959. For the same molecule, the “logFC LIMK1” value ([4]; direction down, experiment wp147, 2 uM) was −2.2, the “logFC LIMK1” value ([4]; direction down, experiment wp147, 4 uM) was −0.637 and the “logFC LIMK1” value ([4]; experiment wp047, down) was −1.637. The “logFC LIMK1” value ([4]; experiment wp137, down) was −1.981, the “logFC LIMK1” value ([4]; experiment wp147, 1 uM, down) was −2.959 and the “logFC LIMK1” value ([4]; experiment wp147, 2 uM, down) was −2.2. The “logFC LIMK1” value ([4]; experiment wp147, 4 uM, down) was −0.637, the “logFC COQ8A (Q8N160-1)” value ([2]; experiment wp147, 1 uM) was −0.3548 and the “logFC COQ8A (Q8NI60-1)” value ([2]; experiment wp147, 1 uM) was −0.3548. For the same molecule, the “logFC COQ8A (Q8N160-1)” value ([2]; experiment wp147, 4 uM) was −0.8159 and the “logFC COQ8A (Q8NI60-1)” value ([2]; experiment wp147, 4 uM) was −0.8159.
With `Cc1ccc(C(=O)Nc2ccc(CN3CCN(CCCOCCOCCOCCNC(=O)COc4cccc5c4C(=O)N(C4CCC(=O)NC4=O)C5=O)CC3)c(C(F)(F)F)c2)cc1C#Cc1cnc2cccnn12` (centres unmarked) [SB1.G.187] the “logFC of CDK5” value ([6]; experiment wp056) was −0.4804, the “logFC of CDK5” value ([6]; experiment wp103) was −0.5924 and the “logFC of CDK5” value ([6]; experiment wp105) was −0.6053. The “logFC CDK5 (Q00535)” value ([6]; Experiment wp105, direction of change down) was −0.6053, the “logFC CDK5 (Q00535)” value ([6]; Experiment wp107) was −0.6778 and the “logFC CDK5 (Q00535)” value ([6]; Experiment wp172) was −0.8938. For the same molecule, the “logFC CDK5 (Q00535)” value ([6]; experiment wp056, direction of change down) was −0.4804, the “logFC CDK5 (Q00535)” value ([6]; experiment wp103, direction of change down) was −0.5924 and the “logFC CDK5 (Q00535)” value ([6]; experiment wp107, direction of change down) was −0.6778. The “logFC CDK5 (Q00535)” value ([6]; experiment wp172, direction of change down) was −0.8938, the logFC [3] was −0.6252 and −0.6455 and the “logFC ABL2 (P42684)” value ([3]; Experiment wp107) was −0.6455. The “logFC ABL2 (P42684)” value ([3]; experiment wp056) was −0.6252, the “logFC AGK (Q53H12)” value ([1]; Experiment wp056) was −0.5707 and the “logFC of CDK17” value ([5]; experiment wp172) was −0.3562. The “logFC CDK17 (Q00537)” value ([5]; experiment wp172) was −0.3562, the “logFC COQ8A (Q8N160-1)” value ([2]; experiment wp056) was −0.3885 and the “logFC COQ8A (Q8NI60-1)” value ([2]; experiment wp056) was −0.3885.
`CNC(=O)c1ccccc1Nc1cc(Nc2ccc(N3CCN(CCOCCOCCNC(=O)CNc4cccc5c4C(=O)N(C4CCC(=O)NC4=O)C5=O)CC3)cc2OC)ncc1C(F)(F)F` (centres unmarked) [MFH.5.103.1] was tested, and the “logFC AGK (Q53H12)” value ([1]; Experiment wp076) was −0.3672.
